# Measurements published in article PMC8634879, “Design, Synthesis, and Biological Evaluation of Pyrano[2,3-c]-pyrazole–Based RalA Inhibitors Against Hepatocellular Carcinoma” (Frontiers in Chemistry, 2021).
# Read-outs that look alike come from different tables or passages of the source.
# Key:
# Huh-7 cells = test: Cell proliferation assay (MTT), Huh-7; assay type: cell-based; conditions: Homo sapiens
# Experimental: (§1) The antibodies recognizing LC3, p62/SQSTM1, RalA, RalB, and GAPDH were purchased from Proteintech (Wuhan, China). HCC cell lines, including HepG2, Hep3B, Huh-7, and SMMC-7721, were obtained from the Chinese Center for Type Culture Collection (Wuhan, China) and cultured in DMEM (Dulbecco’s modified Eagle’s medium) with 10% FBS (fetal bovine serum) and streptomycin. Cytotoxicity assays were performed by using the MTT method as previously described.
# (§2) The in vitro RalA/B bioactivity assays were performed following methods outlined in previous reports. ([Yan et al., 2016]; [Zhang et al., 2018]; [Walsh et al., 2019]; [Bum-Erdene et al., 2020]). In brief, the lysates of the test compound or vehicle-treated cells were cleared using cold centrifugation, and supernatants were collected. An RalBP1 solution was added to 96-well plates and incubated for 1–2 h, and then the plates were washed thrice using ELISA buffer. Next, cellular lysates were added, and samples were incubated overnight at 4°C. Then, ice-cold mouse anti-FLAG antibody was added, and samples were incubated for one more hour. After subsequent washing with ELISA buffer thrice, the HRP-conjugated anti-mouse antibody was added, and samples were incubated for another hour. Then, the HRP substrate was added. Antigen–antibody reactions were quenched by the addition of sulfuric acid (2 mol/L). Remaining RalA/B was detected by the OD450 values which were collected by using a plate reader. Cell proliferation assays, colony formation assays, apoptosis assays, GST pulldown, and Western blotting were used following methods outlined in our previous reports. ([Zhou et al., 2015]; [Zhang et al., 2016]; [Yang et al., 2017]; [He et al., 2019]). Autophagy levels and protein immunoblotting were used following the methods mentioned in our previous reports ([Pan et al., 2018]; [Wang et al., 2018]; [Hao et al., 2019]; [Wang et al., 2019]; [Peng et al., 2020]). Detailed experimental procedures are described in supporting materials.
# HepG2 cells = test: Cell proliferation assay (MTT), HepG2; assay type: cell-based; conditions: Homo sapiens
# Experimental: as §1, §2
# RalA = target: T1, RalA (Homo sapiens, UniProt P11233); test: ELISA-based RalA activity assay (RalBP1-coated plates, lysates of compound-treated cells); assay type: biochemical; conditions: for remaining activity at 1 µM: 1 μM compound, % control = activity remained; for IC50: enzymatic inhibition, average of at least three independent replicates ± SD, read-out: Kinase activities (IC50, μM) RalA
# T1 construct: expressed in transfected cells; host or cells: HepG2 (from b6; the methods paragraph names no cell line)
# T1 sequence (P11233 1-203 limits assumed): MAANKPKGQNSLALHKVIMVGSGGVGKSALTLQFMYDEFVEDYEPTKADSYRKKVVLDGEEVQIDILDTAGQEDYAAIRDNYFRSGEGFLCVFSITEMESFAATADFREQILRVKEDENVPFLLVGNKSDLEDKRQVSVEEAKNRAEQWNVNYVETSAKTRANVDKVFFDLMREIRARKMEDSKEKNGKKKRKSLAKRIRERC
# Experimental: as §2
# RalB = target: T2, RalB (Homo sapiens, UniProt P11234); test: ELISA-based RalB activity assay (RalBP1-coated plates, lysates of compound-treated cells); assay type: biochemical; conditions: for remaining activity at 1 µM: 1 μM compound, % control = active (RalBP1-bound) RalB remaining; for IC50: enzymatic inhibition, average of at least three independent replicates ± SD, read-out: Kinase activities (IC50, μM) RalB
# T2 construct: expressed in transfected cells; host or cells: HepG2 (from b6; the methods paragraph names no cell line)
# T2 sequence (P11234 1-203 limits assumed): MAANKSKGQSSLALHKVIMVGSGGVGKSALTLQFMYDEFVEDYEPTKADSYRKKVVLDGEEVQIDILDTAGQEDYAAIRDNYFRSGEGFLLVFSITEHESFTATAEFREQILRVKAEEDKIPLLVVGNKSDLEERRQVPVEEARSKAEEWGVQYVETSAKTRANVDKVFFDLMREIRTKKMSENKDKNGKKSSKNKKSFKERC
# Experimental: as §2
# Hep3B cells = test: Cell proliferation assay (MTT), Hep3B; assay type: cell-based; conditions: Homo sapiens, average of at least three independent replicates ± SD, read-out: Anti-proliferative activities (IC50, μM) Hep3B
# Experimental: as §1, §2
# SMMC-7721 cells = test: Cell proliferation assay (MTT), SMMC-7721; assay type: cell-based; conditions: Homo sapiens, average of at least three independent replicates ± SD, read-out: Anti-proliferative activities (IC50, μM) SMMC-7721
# Experimental: as §1, §2
# [1] = Table 1, cell proliferation inhibition, read-out: IC50 (μM) Huh7
# [2] = HepG2, Table 1, cell proliferation inhibition, read-out: IC50 (μM) HepG2
# [3] = Table 2, average of at least three independent replicates ± SD, read-out: Anti-proliferative activities (IC50, μM) Huh-7
# [4] = HepG2, Table 2, average of at least three independent replicates ± SD, read-out: Anti-proliferative activities (IC50, μM) HepG2
SMILES,IC50 (Huh-7 cells; [1]) [µM],melting point [°C],IC50 (HepG2 cells; [2]) [µM],remaining activity at 1 µM (RalA) [%],remaining activity at 1 µM (RalB) [%],IC50 (Huh-7 cells; [3]) [µM],IC50 (HepG2 cells; [4]) [µM],IC50 (RalA) [µM],IC50 (Hep3B cells) [µM],IC50 (SMMC-7721 cells) [µM],IC50 (RalB) [µM]
"Cc1ccc(S(=O)(=O)NC2=C(C#N)C(c3ccco3)c3c(C)nn(-c4ccccc4)c3O2)cc1 (stereo not drawn) [4j, N-(5-cyano-4-(furan-2-yl)-3-methyl-1-phenyl-1,4-dihydropyrano[2,3-c]-pyrazol-6-yl)-4-methylbenzenesulfonamide]",9.94 ± 1.23,153.8 to 154.3,9.57 ± 1.05,57,70,,,,,,
"Cc1ccc(S(=O)(=O)NC2=C(C#N)C(c3cccnc3)c3c(C)nn(-c4ccccc4)c3O2)cc1 (stereo not drawn) [4k, N-(5-cyano-3-methyl-1-phenyl-4-(pyridin-3-yl)-1,4-dihydropyrano[2,3-c]-pyrazol-6-yl)-4-methylbenzenesulfonamide]",6.01 ± 0.57,,5.63 ± 0.58,32,38,6.01 ± 0.57,5.63 ± 0.58,0.75 ± 0.09,> 10,> 10,1.09 ± 0.13
"Cc1ccc(S(=O)(=O)NC2=C(C#N)C(c3ccncc3)c3c(C)nn(-c4ccccc4)c3O2)cc1 (stereo not drawn) [4l, N-(5-cyano-3-methyl-1-phenyl-4-(pyridin-4-yl)-1,4-dihydropyrano[2,3-c]-pyrazol-6-yl)-4-methylbenzenesulfonamide]",9.15 ± 1.04,100.5 to 101.1,9.2 ± 0.89,40,52,9.15 ± 1.04,6.01,1.24 ± 0.15,4.39 ± 0.57,5.94 ± 0.77,2.64 ± 0.3
"Cc1ccc(S(=O)(=O)NC2=C(C#N)C(c3ccco3)c3c(C)nn(-c4ccccc4Cl)c3O2)cc1 (stereo not drawn) [4s, N-(1-(2-chlorophenyl)-5-cyano-4-(furan-2-yl)-3-methyl-1,4-dihydropyrano[2,3-c]-pyrazol-6-yl)-4-methylbenzenesulfonamide]",> 10,62.5 to 63.9,9.89 ± 0.81,48,72,,,,,,
"Cc1ccc(S(=O)(=O)NC2=C(C#N)C(c3ccncc3)c3c(C)nn(-c4ccccc4Cl)c3O2)cc1 (stereo not drawn) [4u, N-(1-(2-chlorophenyl)-5-cyano-3-methyl-4-(pyridin-4-yl)-1,4-dihydropyrano[2,3-c]-pyrazol-6-yl)-4-methylbenzenesulfonamide]",> 10,79 to 80,8.71 ± 0.74,44,50,,,,,,
"Cc1ccc(S(=O)(=O)NC2=C(C#N)C(c3ccsc3)c3c(C)nn(-c4ccccc4Cl)c3O2)cc1 (stereo not drawn) [4v, N-(1-(2-chlorophenyl)-5-cyano-3-methyl-4-(thiophen-3-yl)-1,4-dihydropyrano[2,3-c]-pyrazol-6-yl)-4-methylbenzenesulfonamide]",> 10,67.4 to 68.8,> 10,56,78,,,,,,
"COc1cccc(C2C(C#N)=C(NS(=O)(=O)c3ccc(C)cc3)Oc3c2c(C)nn3-c2ccccc2Cl)c1 (stereo not drawn) [4w, N-(1-(2-chlorophenyl)-5-cyano-4-(3-methoxyphenyl)-3-methyl-1,4-dihydropyrano[2,3-c]-pyrazol-6-yl)-4-methylbenzenesulfonamide]",> 10,66.4 to 67.7,8.87 ± 0.95,51,69,,,,,,
"COc1cccc(C2C(C#N)=C(NS(=O)(=O)c3ccccc3)Oc3c2c(C)nn3-c2ccccc2Cl)c1 (stereo not drawn) [4x, N-(1-(2-chlorophenyl)-5-cyano-4-(3-methoxyphenyl)-3-methyl-1,4-dihydropyrano[2,3-c]-pyrazol-6-yl)benzenesulfonamide]",8.93 ± 1.02,66 to 67.5,> 10,59,58,,,,,,
